# In patent US20230348564A1, “ANTI-CANCER PROTEINS” (UNICHEM LABORATORIES LTD, priority 2020, published 2023):
# Key:
# PANC-1 = test: Cell cycle analysis (PI stain); assay type: cell-based, Human; details: 24 h
# Experimental: (§1) The cell lines were maintained in DMEM+10% FBS (heat inactivated) at 37° C. with 5% CO2, and 95% humidity. Antibiotics Penicillin (100 U/mL) and Streptomycin (100 μg/mL) were added to the medium.
# (§2) The stock solution of recombinant lectin having the amino acid sequence of SEQ ID NO. […] Doxorubicin was used as positive control and stock solution was prepared in DMSO.
# (§3) Cells were counted using hemocytometer and plated in culture plates at density of 0.5×10^6 cells/well in DMEM+10% FBS in 6-well plates. Cells were incubated overnight to allow the cell recovery and exponential growth. Following overnight incubation, cells were sera starved in DMEM+1% FBS for 4 h. […] Untreated cells were included as Control group for test item. Cells treated with Doxorubicin were included as Positive Control group. DMSO treated cells were included as control group for Doxorubicin. After treatment, cells were incubated for a time period of 24 h. Following incubation, the pro-apoptotic effect by cell cycle was determined as follows: Cell cycle reagent contains PI stain, which stains DNA of cells in different phases of cell cycle; Sub(G0/G1), G1, S, G2 and M. Cells in Sub(G0/G1) phase correspond to apoptotic cells.
# (§4) Cells were gently harvested into pre-labeled centrifuge tubes and centrifuged at 450 g for 5 min, RT (low brake). The supernatants were removed carefully (not to touch the pellet) and discarded. 1 mL of 1×PBS was added to the pellet and resuspended gently to make homogenous suspension. Cells were centrifuged at 450 g for 5 min, RT (low brake) (washing step). The supernatant was carefully removed leaving behind approx 100 μL of PBS. Cells were resuspended gently yet thoroughly in residual PBS. Ice-cold 70% ethanol (300 μLI) was added drop-wise into cells in each tube while vortexing at low speed (fixation step). Cells were stored at 4° C. for 24 h prior to staining.
# (§5) Ethanol fixed cells were centrifuged at 450 g for 5 min, RT (low brake). The supernatant was carefully removed (not to touch the pellet) and discarded. (The pellet might not be visible but makes a thin film on surface of tube). 1 mL of 1×PBS was added into pellet and resuspended gently. Cells were incubated for 1 min at RT. Cells were centrifuged at 450 g for 5 min, RT (low brake) (washing step). The supernatant was removed carefully leaving behind approx 20 μL-50 μL of PBS. 200 μL of Cell Cycle reagent was added into each tube.
# (§6) Cells were resuspended gently, mixed and were incubated for 30 min, RT, Dark. The stained samples were transferred into 96-well plates and acquired on flow cytometer (Guava technologies). Percentage of cells in Sub (G0/G1) phase were determined. Fold increase in apoptotic cells (treated with Test Items) was determined as compared to Control (untreated cells).
# MDA-MB-231 = test: Cell cycle analysis (PI stain); assay type: cell-based, Human; details: 24 h
# Experimental: as §1, §2, §3, §4, §5, §6
structure (smiles),measurement,setting,value
"COc1cccc2c1C(=O)c1c(O)c3c(c(O)c1C2=O)C[C@@](O)(C(=O)CO)C[C@@H]3O[C@H]1C[C@H](N)[C@H](O)[C@H](C)O1 [Doxorubicin, reference compound]","% Population of cells, Apoptotic Sub(G0/G1)",PANC-1; 10 μM,14.74%
same,"% Population of cells, G0/G1",PANC-1; 10 μM,15.84%
same,"% Population of cells, G2/M",PANC-1; 10 μM,27.44%
same,"% Population of cells, S",PANC-1; 10 μM,18.45%
same,"% Population of cells, Apoptotic Sub(G0/G1)",PANC-1; 100 μM,89.13%
same,"% Population of cells, G0/G1",PANC-1; 100 μM,9.65%
same,"% Population of cells, G2/M",PANC-1; 100 μM,0.15%
same,"% Population of cells, S",PANC-1; 100 μM,0.59%
same,"% Population of cells, Apoptotic Sub(G0/G1)",MDA-MB-231; 10 μM,11.09%
same,"% Population of cells, G0/G1",MDA-MB-231; 10 μM,40.26%
same,"% Population of cells, G2/M",MDA-MB-231; 10 μM,18.52%
same,"% Population of cells, S",MDA-MB-231; 10 μM,22.70%
same,"% Population of cells, Apoptotic Sub(G0/G1)",MDA-MB-231; 100 μM,92.02%
same,"% Population of cells, G0/G1",MDA-MB-231; 100 μM,5.64%
same,"% Population of cells, G2/M",MDA-MB-231; 100 μM,0.83%
same,"% Population of cells, S",MDA-MB-231; 100 μM,1.17%
